Data as given in EP4810493A1, “HETEROCYCLIC CARBONYL DERIVATIVE MODULATOR, PREPARATION METHOD THEREFOR, AND USE THEREOF” (Shanghai Hansoh Biomedical Co., Ltd., priority 2023, dated 2025).

What follows are molecules tested against T1, M4 receptor (Homo sapiens, UniProt P08173) (assay: Calcium flux (FLIPR) potentiation assay in cells stably expressing M4 receptor). Settings: not given.
T1 construct: expressed in transfected cells
T1 sequence (P08173 1-479): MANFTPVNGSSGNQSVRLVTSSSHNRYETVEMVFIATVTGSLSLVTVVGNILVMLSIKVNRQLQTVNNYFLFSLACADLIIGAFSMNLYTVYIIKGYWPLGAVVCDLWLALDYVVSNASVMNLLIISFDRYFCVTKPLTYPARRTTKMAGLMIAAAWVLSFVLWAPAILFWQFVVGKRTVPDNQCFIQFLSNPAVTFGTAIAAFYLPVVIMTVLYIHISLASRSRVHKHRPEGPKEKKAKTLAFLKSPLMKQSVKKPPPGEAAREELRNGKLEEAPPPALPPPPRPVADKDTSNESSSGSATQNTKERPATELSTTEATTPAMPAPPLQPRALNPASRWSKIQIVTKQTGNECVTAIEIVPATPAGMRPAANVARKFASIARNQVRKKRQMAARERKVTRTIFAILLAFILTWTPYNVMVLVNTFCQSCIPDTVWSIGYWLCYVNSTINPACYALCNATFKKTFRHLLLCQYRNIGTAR
Type: cell-based
Text: Test example 1. Determination of the effect of the compounds of the present invention on calcium current in cells stably expressing M1-M5 receptors
To detect the potentiating effect of compounds on calcium flux activity in CHO-K1/human M1/3/5 and CHO-K1/Gα15 M2/4 cells.
384-well assay plate, 384-well plate, FLIPR Tip, FLIPR Penta plate reader, Dispendix non-contact nanoliter dispensing system (liquid handling workstation), liquid handler.
Ham's F-12 Nutrient Mix, foetal bovine serum, P/S (Gibco: 15140122), HBSS (Gibco: 14025076), HEPES (Gibco: 15630080), FLIPR calcium 6 assay kit (Molecular Devices: R8190), Probenecid (PBA) (Invitrogen: P36400), Acetylcholine chloride (Sigma: A6625-25G) Complete culture medium: DMEM + 10% FBS + 1X P/S; Cell seeding medium: DMEM + 10% FBS + 1X PS; Assay buffer 1: 1X HBSS + 20 mM HEPES +2.5 mM Probenecid; Assay buffer 2: 1X HBSS + 20 mM HEPES; Cell line: CHO-K1/M1; CHO-K1/M2/Gα15; CHO-K1/M3; CHO-K1/M4/Gα15; CHO-K1/M5.
FLIPR calcium 6 assay kit: Component A was dissolved in Assay buffer 1, and the mixture was shaken for 1-2 min, sub-packaged and stored at -20°C.
• 1) CHO-K1/M1; CHO-K1/M2/Gα15; CHO-K1/M3; CHO-K1/M4/Gα15; and CHO-K1/M5 cell lines were cultured separately in complete culture medium at 37°C, 5% CO2 to 70%-90% confluency. • 2) The cells were digested and resuspended in cell seeding medium, 5,000 cells/well/20 µL were seeded into a 384-well cell culture plate, and the cells were cultured at 37°C, 5% CO2 for 24 hours. • 3) The cell culture plate was taken out of the CO2 incubator and equilibrated at room temperature for 10 minutes. • 4) Component A solution was removed and allowed to equilibrate to room temperature. 20 µL of Component A solution was added to each well of the cell culture plate, and incubated at room temperature in the dark for 1 hour. • 5) Acetylcholine chloride (ACh), a muscarinic receptor agonist, was prepared in Assay buffer 2 at EC20/EC100 concentrations; subsequently, 30 µL of the prepared muscarinic receptor agonist was added to a 384-well agonist plate (PE: 6008590) using a Multidrop Combi; the working solutions of the positive control compound and the test compound were serially diluted at a 3.16-fold gradient and dispensed (450 nL) into a 384-well compound plate (PE: 6008590) using the Dispendix liquid handling workstation; 30 µL of Assay buffer 2 was added to the 384-well compound plate (PE: 6008590) using the Multidrop Combi; the positive control compound and the test compound were diluted to 6X, mixed by shaking, and placed at room temperature until use. • 6) 10 µL of the diluted 6X compound was added to the assay wells of the corresponding 384-well cell plate using the FLIPR Penta, followed by a 2-minute incubation. • 7) 10 µL of the prepared muscarinic receptor agonist was added to the assay wells of the corresponding 384-well cell plate using the FLIPR Penta, with simultaneous data acquisition.
FLIPR Penta was used to read and collect the fluorescence signal value (RFU). The maximum RFU value was used to calculate the percent activation data based on the readings of the Low control (DMSO control group) and High control (ACh EC100) experimental groups {% activation rate = (RFUsample - RFUlow control) / (RFUhigh control - RFUlow control)×100}. The test compound was diluted 3.16X in the reaction system to generate 11 concentration points ranging from 30 µM to […].

| Structure (SMILES) | EC50 [nM] |
| --- | --- |
| Cc1c2c(c3nccn3c1C)CN(C(=O)CC1CC1c1ccc(F)nc1)C2 (stereo not drawn) [Example 104] | 53.8 |
| Cc1c2c(c3ncnn3c1C)CN(C(=O)OC1CN(c3cc(Cl)ncc3Cl)C1)C2 [Example 187] | 28.2 |
| Cc1cn2nc(N3CC(CC(=O)N4Cc5c(C)c(C)n6ncnc6c5C4)C3)ccc2n1 [Example 55] | 18.1 |
| Cc1c2c(c3ncnn3c1C)CN(C(=O)CC1CN(c3ncc(F)cc3F)C1)C2 [Example 301] | 12.4 |

Same assay, conditions: CHO-K1/M4/Gα15 cells; potentiation of acetylcholine (EC20) calcium flux; read-out: M4 FLIPR EC50

| EC50 [nM] | Structure (SMILES) |
| --- | --- |
| 99.7 | Cc1c2c(n3ncnc3c1Cl)CN(C(=O)CC1CN(c3ccnc(C(F)(F)F)c3)C1)C2 [Example 293, 1-(4-Chloro-5-methyl-7,8-dihydro-6H-[1,2,4]triazolo[5,1-f]pyrrolo[4,3-b]pyridin-7-yl)-2-{1-[2-(trifluoromethyl)pyridin-4-yl]azetidin-3-yl}ethan-1-one] |
| 47.8 | COc1ccc(N2CC(CC(=O)N3Cc4c(C)c(C)n5ncnc5c4C3)C2)cn1 [Example 264] |
| 18.4 | Cc1c2c(c3ncnn3c1C)CN(C(=O)CC1CN(c3ccnc(C4CCCCO4)c3)C1)C2 (stereo not drawn) [Example 100] |
| 56.4 | Cc1cn2nc(N3CC(CC(=O)N4Cc5c(C)c(C)n6nccc6c5C4)C3)ccc2n1 [Example 201] |
| 73.6 | Cc1c2c(c3nccn3c1C)CN(C(=O)CC1CN(c3ccnc(OC(F)F)c3)C1)C2 [Example 70] |
| 99.7 | Cc1c2c(c3ncnn3c1C)CN(C(=O)CC1CN(c3ccc(C(F)(F)F)cn3)C1)C2 [Example 217] |
| 24.4 | Cc1c2c(c3ncnn3c1C)CN(C(=O)C[C@@H]1C[C@H]1c1ccc(F)nc1)C2 [Example 103, 1-(5,6-Dimethyl-7,9-dihydro-8H-pyrrolo[3,4-c][1,2,4]triazolo[1,5-a]pyridin-8-yl)-2-((1S,2R)-2-(6-fluoropyridin-3-yl)cyclopropyl)ethan-1-one] |
| 37 | Cc1c2c(c3ncnn3c1C)CN(C(=O)c1ccc(F)c(Cl)c1)C2 [Example 29] |
| 13.8 | Cc1c2c(c3ncnn3c1C)CN(C(=O)CC1CN(c3ccc(OC4CC4)nc3)C1)C2 [Example 303] |
| 83.8 | Cc1cn2cc(N3CC(OC(=O)N4Cc5c(C)c(C)n6ncnc6c5C4)C3)ccc2n1 [Example 178] |
| 42.6 | Cc1c2c(c3ccnn3c1C)CN(C(=O)CC1CN(c3ccnc(C(F)F)c3)C1)C2 [Example 208] |
| 53.5 | COc1cc(N2CC(CC(=O)N3Cc4c(C)c(C)n5nccc5c4C3)C2)c(F)cn1 [Example 220] |
| 44.1 | Cc1c2c(c3ncnn3c1C)CN(C(=O)OC1CN(c3cc(C(F)F)ncc3Cl)C1)C2 [Example 184] |
| 25.9 | Cc1c2c(c3nc(N)nn3c1C)CN(C(=O)CC1CN(c3ccnc(OC(F)F)c3)C1)C2 [Example 181] |
| 39.4 | Cc1cn2nc(N3CC(OC(=O)N4Cc5c(C)c(C)n6nccc6c5C4)C3)ccc2n1 [Example 200] |
| 23.2 | Cc1c2c(c3ncnn3c1C)CN(C(=O)CC1CN(c3cnc4c(c3)CCCO4)C1)C2 [Example 302] |
| 36.4 | Cc1nc2c3c(c(C)c(C)n2n1)CN(C(=O)[C@@H]1CCN(c2ccncn2)C1)C3 [Example 232] |
| 15.1 | Cc1c2c(c3ncnn3c1C)CN(C(=O)CC1CN(c3ccc(C4CC4)nc3)C1)C2 [Example 312] |
| 40.4 | Cc1c2c(c3ncnn3c1C)CN(C(=O)C1CCN(c3ccncn3)C1)C2 (stereo not drawn) [Example 34] |
| 91.2 | CCn1ccc2cc(N3CC(CC(=O)N4Cc5c(C)c(C)n6ncnc6c5C4)C3)ccc21 [Example 310] |
| 28.8 | Cc1c2c(c3ncnn3c1C)CN(C(=O)CC1CN(c3ccnc(OCC(F)(F)F)c3)C1)C2 [Example 186] |

| EC50 [nM] | Structure (SMILES) |
| --- | --- |
| 8 | CCNc1nccc(N2CC(CC(=O)N3Cc4c(C)c(C)n5ncnc5c4C3)C2)n1 [Example 53] |
| 90.4 | Cc1c2c(c3ccnn3c1C)CN(C(=O)CC1CN(c3ccc4nc(C(F)(F)F)cn4n3)C1)C2 [Example 227] |
| 29.9 | Cc1nc(Cl)c(C)c(N2CC(CC(=O)N3Cc4c(C)c(C)n5ncnc5c4C3)C2)n1 [Example 226] |
| 18 | Cc1nc2c3c(c(C)c(C)n2n1)CN(C(=O)CC1CN(c2ccnc(C(F)(F)F)c2)C1)C3 [Example 57] |
| 37.7 | Cc1c2c(c3nnnn3c1C)CN(C(=O)CC1CN(c3ccnc(C(F)(F)F)c3)C1)C2 [Example 148] |
| 87.5 | Cc1c2c(c3nccn3c1C)CN(C(=O)OC1CN(c3ccnc(OC(F)F)c3)C1)C2 [Example 72] |
| 73.2 | Cc1c2c(c3ncnn3c1C)CN(C(=O)OC1CN(c3ccc4nc(CF)cn4n3)C1)C2 [Example 190] |
| 59.7 | Cc1c2c(c3ncnn3c1C)CN(C(=O)C1CC(Nc3ccnc(C(F)(F)F)c3)C1)C2 (stereo not drawn) [Example 284-P2, (5,6-Dimethyl-7,9-dihydro-8H-pyrrolo[3,4-c][1,2,4]triazolo[1,5-a]pyridin-8-yl)(3-((2-(trifluoromethyl)pyridin-4-yl)amino)cyclobutyl)methanone] |
| 33.5 | Cc1c2c(c3nccn3c1C)CN(C(=O)CC1CN(c3ccnc(C(F)F)c3)C1)C2 [Example 101] |
| 6.8 | Cc1c2c(c3ncnn3c1C)CN(C(=O)CC1CN(c3ccc(OC(F)F)nc3)C1)C2 [Example 305] |
| 10.4 | CCc1ccc(N2CC(CC(=O)N3Cc4c(C)c(C)n5ncnc5c4C3)C2)cn1 [Example 313] |
| 9.6 | Cc1c2c(c3ncnn3c1C)CN(C(=O)CC1CN(c3cc(NC(C)C)ncn3)C1)C2 [Example 54] |
| 35.7 | Cc1c2c(c3ncnn3c1C)CN(C(=O)CC1CN(c3ncc(F)cn3)C1)C2 [Example 300] |
| 35.1 | CCOc1cc(N2CC(OC(=O)N3Cc4c(C)c(C)n5ncnc5c4C3)C2)ccn1 [Example 238] |
| 94.3 | Cc1c2c(c3ccnn3c1C)CN(C(=O)CC1CN(c3ccnc(OC4CC4)c3)C1)C2 [Example 221] |
| 10.6 | Cc1c2c(c3ncnn3c1C)CN(C(=O)CC1CN(c3ccnc(S(=O)(=O)N(C)C)c3)C1)C2 [Example 61] |
| 15.2 | Cc1cn2nc(N3CC(CC(=O)N4Cc5c(C)c(C)n6nc(C)nc6c5C4)C3)ccc2n1 [Example 127] |
| 27.4 | Cc1c2c(c3nc(N)nn3c1C)CN(C(=O)CC1CN(c3ccnc(C(F)(F)F)c3)C1)C2 [Example 145] |
| 9.5 | Cc1c2c(c3ncnn3c1C)CN(C(=O)CC1CN(c3ccc(S(=O)(=O)C(F)F)cc3)C1)C2 [Example 25] |
| 57.1 | Cc1c2c(c3nnnn3c1C)CN(C(=O)OC1CN(c3ccnc(OC(F)F)c3)C1)C2 [Example 179] |
